Among the data in patent publication US20240287138A1, “CYCLIC PEPTIDES FOR INHIBITING TNF RECEPTOR 1 ACTIVITY” (Merck Sharp & Dohme LLC, priority 2023, published 2024) are IC50 values, retold here.

Numbered stars: 1 amine (or outer) side, 2 acyl side, 3 side chain; on linkers, the order of the positions; unused ones are H or OH. Bridge positions count the residues as written; N and C are the ends. Square brackets hold non-standard residues; d marks the D form. Peptide text beside a SMILES is read from it. Trp(βS-Me,7-OMe) = COc1cccc2c([C@H](C)[C@H](N)C(=O)O)c[nH]c12; Phe(2-F,4-COOH) = N[C@@H](Cc1ccc(C(=O)O)cc1F)C(=O)O; Phe(4-CH2COOH) = N[C@@H](Cc1ccc(CC(=O)O)cc1)C(=O)O; Trp(7-Cl) = N[C@@H](Cc1c[nH]c2c(Cl)cccc12)C(=O)O; Phe(4-COOH) = N[C@@H](Cc1ccc(C(=O)O)cc1)C(=O)O; 3Pal(6-OMe) = COc1ccc(C[C@H](N)C(=O)O)cn1; X1 = O=C([C@@H]1CC[C@H](N[*:1])C1)[*:2]; Pip(4-aza) = O=C(O)[C@@H]1CNCCN1; 4Pal = N[C@@H](Cc1ccncc1)C(=O)O; NMeE = CN[C@@H](CCC(=O)O)C(=O)O; hLeu = CC(C)CC[C@H](N)C(=O)O; αMeS = C[C@](N)(CO)C(=O)O; Nle = CCCC[C@H](N)C(=O)O; Sar = CNCC(=O)O

For this assay, the target named is T1, TNFα-induced NF-κB signal transduction pathway (TNFR1 signaling) in THP-1 cells (Homo sapiens, UniProt P19438).
T1 sequence (P19438 30-455): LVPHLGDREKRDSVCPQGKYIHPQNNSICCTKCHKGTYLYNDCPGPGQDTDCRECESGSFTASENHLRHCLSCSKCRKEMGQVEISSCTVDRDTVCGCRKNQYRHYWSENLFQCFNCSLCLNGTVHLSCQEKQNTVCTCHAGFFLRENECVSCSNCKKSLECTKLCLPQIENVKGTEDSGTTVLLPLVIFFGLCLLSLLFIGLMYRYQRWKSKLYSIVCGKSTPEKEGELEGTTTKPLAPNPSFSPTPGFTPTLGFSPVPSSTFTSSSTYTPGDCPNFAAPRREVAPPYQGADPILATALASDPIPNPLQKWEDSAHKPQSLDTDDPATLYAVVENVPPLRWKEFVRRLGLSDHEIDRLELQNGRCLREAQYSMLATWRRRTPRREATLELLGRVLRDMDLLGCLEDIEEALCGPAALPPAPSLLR
Kind of assay: THP-1 Lucia NF-κB reporter cell assay, inhibition of TNFα-induced NF-κB signaling. The format is cell-based. The settings on record: THP-1 NF-κB Lucia reporter cells, 10 ng/mL TNFα, 16-18 h, secreted luciferase; read-out: THP-1 IC50. The protocol: C. Procedure for THP-1 Lucia NF-κB cells
The inhibition of TNFα-induced NF-κB signal transduction pathways was evaluated in THP-1 cells. THP-1 cells harboring NF-κB-inducible Lucia™ reporter gene (InvivoGen, cat. #thp1-nfkb) designed for monitoring NF-κB signal transduction pathway was employed to assess the inhibitory effect macrocyclic peptides on TNFR1 signaling. The cells were cultured in media containing RPMI 1640, 2 mM L-glutamine, 25 mM HEPES, 10% heat-inactivated fetal bovine serum with appropriate selection antibiotics. Assays were performed in media that was devoid of selection antibiotics. For profiling, 125 nL of peptides in DMSO (10 mM) were dispensed into Falcon® 384-well Optilux white/clear flat bottom TC-treated microtest microplate (Corning, cat. #353963) using Echo® 555. […] A suspension of 1 million cells/mL was dispensed at 20 μL/well in a 384-well plate to a density of 20,000 cells/well and pre-incubated with peptides at 37° C. for 1 h. Subsequently, 5 μL of TNF containing media (recombinant human TNFα; R&D Systems USA, cat. #210-TA-005/CF) or TNF-free media (for controls) was added to the wells. The final concentration of TNFα in the assay in 10 ng/mL. After o.n. incubation at 37° C. (16-18 h), 5 μL of supernatant was aspirated and transferred to a 384-well microplate (PerkinElmer, cat. #6007680) for measurement of secreted luciferase activity with 25 μL of QUANTI-Luc™ luminescence assay reagent (InvivoGen, cat. #rep-qlc1) in each well. The luminescence was measured in EnVision® Multimode Plate Reader (PerkinElmer). Dose response curves were analyzed using a 4-parameter logistic model to calculate IC50 values, reported in Table 2, using TIBCO® Spotfire® software employing appropriate Minimum and Maximum controls.
`CCCC[C@@H]1NC(=O)[C@@H]2CC[C@@H](C2)NC(=O)[C@H]([C@@H](C)c2c[nH]c3c(OC)cccc23)NC(=O)CN(C)C(=O)[C@H](Cc2ccc(O)cc2)NC(=O)[C@H](Cc2ccc(CC(=O)O)cc2)NC(=O)[C@](C)(CO)NC(=O)[C@H](Cc2c[nH]c3c(Cl)cccc23)NC(=O)[C@H](Cc2ccncc2)NC(=O)[C@H](CC(N)=O)NC(=O)[C@H](CCC(=O)O)N(C)C(=O)[C@H](Cc2c[nH]c3ccccc23)NC(=O)[C@@H]2CNCCN2C(=O)[C@H](Cc2ccncc2)NC1=O` [SEQ ID NO. 111] (cyclo([4Pal][Trp(7-Cl)][αMeS][Phe(4-CH2COOH)]Y[Sar][Trp(βS-Me,7-OMe)][X1][Nle][4Pal][Pip(4-aza)]W[NMeE]N)): the IC50 came to 1.6 nM.

On to `CCCC[C@@H]1NC(=O)[C@@H]2CC[C@@H](C2)NC(=O)[C@H]([C@@H](C)c2c[nH]c3c(OC)cccc23)NC(=O)CN(C)C(=O)[C@H](Cc2ccc(O)cc2)NC(=O)[C@H](Cc2ccc(C(=O)O)cc2F)NC(=O)[C@](C)(CO)NC(=O)[C@H](Cc2c[nH]c3c(Cl)cccc23)NC(=O)[C@H](Cc2ccncc2)NC(=O)[C@H](CC(N)=O)NC(=O)[C@H](CCC(=O)O)N(C)C(=O)[C@H](Cc2c[nH]c3ccccc23)NC(=O)[C@@H]2CNCCN2C(=O)[C@H](Cc2ccncc2)NC1=O` [SEQ ID NO. 7] (cyclo([4Pal][Trp(7-Cl)][αMeS][Phe(2-F,4-COOH)]Y[Sar][Trp(βS-Me,7-OMe)][X1][Nle][4Pal][Pip(4-aza)]W[NMeE]N)), for which the IC50 is 1.6 nM.

Take `COc1cccc2c([C@H](C)[C@@H]3NC(=O)CN(C)C(=O)[C@H](Cc4ccc(O)cc4)NC(=O)[C@H](Cc4ccc(C(=O)O)cc4)NC(=O)[C@](C)(CO)NC(=O)[C@H](Cc4c[nH]c5c(Cl)cccc45)NC(=O)[C@H](Cc4ccncc4)NC(=O)[C@H](CC(N)=O)NC(=O)[C@H](CCC(=O)O)N(C)C(=O)[C@H](Cc4c[nH]c5ccccc45)NC(=O)[C@@H]4CNCCN4C(=O)[C@H](Cc4ccncc4)NC(=O)[C@H](CCC(C)C)NC(=O)[C@@H]4CC[C@@H](C4)NC3=O)c[nH]c12` [SEQ ID NO. 137] (cyclo([4Pal][Trp(7-Cl)][αMeS][Phe(4-COOH)]Y[Sar][Trp(βS-Me,7-OMe)][X1][hLeu][4Pal][Pip(4-aza)]W[NMeE]N)): the IC50 was found to be 1.3 nM.

As for `CCCC[C@@H]1NC(=O)CSC[C@@H](C(N)=O)NC(=O)[C@H]([C@@H](C)c2c[nH]c3c(OC)cccc23)NC(=O)CN(C)C(=O)[C@H](Cc2ccc(O)cc2)NC(=O)[C@H](Cc2ccc(C(=O)O)cc2)NC(=O)[C@](C)(CO)NC(=O)[C@H](Cc2c[nH]c3c(Cl)cccc23)NC(=O)[C@H](Cc2ccncc2)NC(=O)[C@H](CCC(=O)N(C)C)NC(=O)[C@H](CCC(=O)O)N(C)C(=O)[C@H](Cc2c[nH]c3ccccc23)NC(=O)[C@@H]2CNCCN2C(=O)[C@H](Cc2ccncc2)NC1=O` [SEQ ID NO. 75] ({CH2CO}-[Nle][4Pal][Pip(4-aza)]W[NMeE]E(NMe2)[4Pal][Trp(7-Cl)][αMeS][Phe(4-COOH)]Y[Sar][Trp(βS-Me,7-OMe)]C-NH2; thioether N-14), the IC50 worked out at 6.1 nM.

Consider `CCCC[C@@H]1NC(=O)[C@@H]2CC[C@@H](C2)NC(=O)[C@H]([C@@H](C)c2c[nH]c3c(OC)cccc23)NC(=O)CN(C)C(=O)[C@H](Cc2ccc(O)cc2)NC(=O)[C@H](Cc2ccc(C(=O)O)cc2)NC(=O)[C@](C)(CO)NC(=O)[C@H](Cc2c[nH]c3c(Cl)cccc23)NC(=O)[C@H](Cc2ccc(OC)nc2)NC(=O)[C@H](CC(N)=O)NC(=O)[C@H](CCC(=O)O)N(C)C(=O)[C@H](Cc2c[nH]c3ccccc23)NC(=O)[C@@H]2CNCCN2C(=O)[C@H](Cc2ccncc2)NC1=O` [SEQ ID NO. 100] (cyclo([4Pal][Pip(4-aza)]W[NMeE]N[3Pal(6-OMe)][Trp(7-Cl)][αMeS][Phe(4-COOH)]Y[Sar][Trp(βS-Me,7-OMe)][X1][Nle])), for which the IC50 stood at 1.3 nM.
